Results taken from ChEMBL document CHEMBL3797178, “Synthesis, antimycobacterial and antibacterial activity of 1-(6-amino-3,5-difluoropyridin-2-yl)fluoroquinolone derivatives containing an oxime functional moiety” (2016).
In brackets after ≈: the same amount, converted by molar mass.

Columns and labels:
Assay type in all cases: functional
[1] = tested on: Staphylococcus epidermidis; test: Antibacterial activity against methicillin-sensitive Staphylococcus epidermidis 14-6 after 18 to 24 hrs by CLSI M100-S11 method
[2] = tested on: Enterococcus faecalis; test: Antibacterial activity against Enterococcus faecalis 14-1 after 18 to 24 hrs by CLSI M100-S11 method
[3] = tested on: Klebsiella pneumoniae; test: Antibacterial activity against extended-spectrum beta-lactamase-producing Klebsiella pneumoniae 14-17 after 18 to 24 hrs by CLSI M100-S11 method
[4] = tested on: Escherichia coli; test: Antibacterial activity against Escherichia coli ATCC 25922 after 18 to 24 hrs by CLSI M100-S11 method
[5] = tested on: Staphylococcus aureus; test: Antibacterial activity against methicillin-sensitive Staphylococcus aureus 14-3 after 18 to 24 hrs by CLSI M100-S11 method
[6] = tested on: Escherichia coli; test: Antibacterial activity against extended-spectrum beta-lactamase-producing Escherichia coli 14-1 after 18 to 24 hrs by CLSI M100-S11 method
[7] = tested on: Klebsiella pneumoniae; test: Antibacterial activity against extended-spectrum beta-lactamase-producing Klebsiella pneumoniae 14-18 after 18 to 24 hrs by CLSI M100-S11 method
[8] = tested on: Pseudomonas aeruginosa; test: Antibacterial activity against Pseudomonas aeruginosa ATCC 27853 after 18 to 24 hrs by CLSI M100-S11 method
[9] = tested on: Klebsiella pneumoniae; test: Antibacterial activity against Klebsiella pneumoniae 14-2 after 18 to 24 hrs by CLSI M100-S11 method
[10] = tested on: Pseudomonas aeruginosa; test: Antibacterial activity against Pseudomonas aeruginosa 14-9 after 18 to 24 hrs by CLSI M100-S11 method
[11] = tested on: Pseudomonas aeruginosa; test: Antibacterial activity against Pseudomonas aeruginosa 14-19 after 18 to 24 hrs by CLSI M100-S11 method
[12] = tested on: Klebsiella pneumoniae; test: Antibacterial activity against Klebsiella pneumoniae 14-4 after 18 to 24 hrs by CLSI M100-S11 method
[13] = tested on: Enterococcus faecium; test: Antibacterial activity against Enterococcus faecium 14-2 after 18 to 24 hrs by CLSI M100-S11 method
[14] = tested on: Staphylococcus epidermidis; test: Antibacterial activity against methicillin-resistant Staphylococcus epidermidis 14-39 after 18 to 24 hrs by CLSI M100-S11 method
[15] = tested on: Mycobacterium tuberculosis; test: Antimycobacterial activity against Mycobacterium tuberculosis H37Rv ATCC 27294 after 3 days by microplate Alamar Blue assay; details: H37Rv ATCC 27294, 72 h
[16] = tested on: Staphylococcus aureus; test: Antibacterial activity against methicillin-resistant Staphylococcus aureus 14-4 after 18 to 24 hrs by CLSI M100-S11 method
[17] = tested on: Staphylococcus epidermidis; test: Antibacterial activity against methicillin-sensitive Staphylococcus epidermidis 14-4 after 18 to 24 hrs by CLSI M100-S11 method
[18] = tested on: Escherichia coli; test: Antibacterial activity against extended-spectrum beta-lactamase-producing Escherichia coli 14-2 after 18 to 24 hrs by CLSI M100-S11 method
[19] = tested on: Klebsiella pneumoniae; test: Antibacterial activity against Klebsiella pneumoniae 14-3 after 18 to 24 hrs by CLSI M100-S11 method
[20] = tested on: Pseudomonas aeruginosa; test: Antibacterial activity against Pseudomonas aeruginosa 14-15 after 18 to 24 hrs by CLSI M100-S11 method
[21] = tested on: Staphylococcus aureus; test: Antibacterial activity against methicillin-sensitive Staphylococcus aureus 14-4 after 18 to 24 hrs by CLSI M100-S11 method
[22] = tested on: Staphylococcus epidermidis; test: Antibacterial activity against methicillin-resistant Staphylococcus epidermidis 14-22 after 18 to 24 hrs by CLSI M100-S11 method
[23] = tested on: Enterococcus faecalis; test: Antibacterial activity against Enterococcus faecalis 14-2 after 18 to 24 hrs by CLSI M100-S11 method
[24] = tested on: Streptococcus pneumoniae; test: Antibacterial activity against Streptococcus pneumoniae ATCC 19615 after 18 to 24 hrs by CLSI M100-S11 method
[25] = tested on: Pseudomonas aeruginosa; test: Antibacterial activity against Pseudomonas aeruginosa 14-14 after 18 to 24 hrs by CLSI M100-S11 method
[26] = tested on: Enterococcus faecalis; test: Antibacterial activity against Enterococcus faecalis 14-3 after 18 to 24 hrs by CLSI M100-S11 method
[27] = tested on: Staphylococcus epidermidis; test: Antibacterial activity against methicillin-sensitive Staphylococcus epidermidis 14-2 after 18 to 24 hrs by CLSI M100-S11 method
[28] = tested on: Escherichia coli; test: Antibacterial activity against Escherichia coli 14-2 after 18 to 24 hrs by CLSI M100-S11 method
[29] = tested on: Staphylococcus aureus; test: Antibacterial activity against methicillin-resistant Staphylococcus aureus 14-5 after 18 to 24 hrs by CLSI M100-S11 method
[30] = tested on: Staphylococcus epidermidis; test: Antibacterial activity against methicillin-resistant Staphylococcus epidermidis 14-37 after 18 to 24 hrs by CLSI M100-S11 method
[31] = tested on: Staphylococcus aureus; test: Antibacterial activity against Staphylococcus aureus CMCC 26003 after 18 to 24 hrs by CLSI M100-S11 method
[32] = tested on: Pseudomonas aeruginosa; test: Antibacterial activity against Pseudomonas aeruginosa 14-16 after 18 to 24 hrs by CLSI M100-S11 method
[33] = tested on: Klebsiella pneumoniae; test: Antibacterial activity against extended-spectrum beta-lactamase-producing Klebsiella pneumoniae 14-19 after 18 to 24 hrs by CLSI M100-S11 method
[34] = tested on: Staphylococcus aureus; test: Antibacterial activity against methicillin-sensitive Staphylococcus aureus 14-2 after 18 to 24 hrs by CLSI M100-S11 method
[35] = tested on: Klebsiella pneumoniae; test: Antibacterial activity against Klebsiella pneumoniae 14-1 after 18 to 24 hrs by CLSI M100-S11 method
[36] = tested on: Enterococcus faecium; test: Antibacterial activity against Enterococcus faecium 14-1 after 18 to 24 hrs by CLSI M100-S11 method
[37] = tested on: Escherichia coli; test: Antibacterial activity against Escherichia coli 14-1 after 18 to 24 hrs by CLSI M100-S11 method

Structure (SMILES)	MIC [1]	MIC [2]	MIC [3]	MIC [4]	MIC [5]	MIC [6]	MIC [7]	MIC [8]	MIC [9]	MIC [10]	MIC [12]	MIC [13]	MIC [15]	MIC [16]	MIC [17]	MIC [18]	MIC [19]	MIC [20]	MIC [21]	MIC [22]	also measured
CO/N=C1\CN(c2nc3c(cc2F)c(=O)c(C(=O)O)cn3-c2nc(N)c(F)cc2F)CC1CN (centres undefined)	64 µg/mL (≈ 134 µM)	16 µg/mL (≈ 33.5 µM)	128 µg/mL (≈ 268 µM)	2 µg/mL (≈ 4.19 µM)	0.5 µg/mL (≈ 1.05 µM)	16 µg/mL (≈ 33.5 µM)	32 µg/mL (≈ 67 µM)	4 µg/mL (≈ 8.38 µM)	> 128 µg/mL	16 µg/mL (≈ 33.5 µM)	> 128 µg/mL	64 µg/mL (≈ 134 µM)	7.13 µg/mL (≈ 14.9 µM)	> 128 µg/mL	64 µg/mL (≈ 134 µM)	> 128 µg/mL	> 128 µg/mL	32 µg/mL (≈ 67 µM)	0.25 µg/mL (≈ 0.524 µM)	64 µg/mL (≈ 134 µM)	MIC [11]: 64 µg/mL (≈ 134 µM); MIC [14]: 64 µg/mL (≈ 134 µM); MIC [23]: 16 µg/mL (≈ 33.5 µM); MIC [24]: 64 µg/mL (≈ 134 µM); MIC [25]: 32 µg/mL (≈ 67 µM); MIC [26]: 32 µg/mL (≈ 67 µM); MIC [27]: > 128 µg/mL; MIC [28]: 128 µg/mL (≈ 268 µM); MIC [29]: 64 µg/mL (≈ 134 µM); MIC [30]: 128 µg/mL (≈ 268 µM); MIC [31]: 0.5 µg/mL (≈ 1.05 µM); MIC [32]: 32 µg/mL (≈ 67 µM); MIC [33]: > 128 µg/mL; MIC [34]: 0.5 µg/mL (≈ 1.05 µM); MIC [35]: > 128 µg/mL; MIC [36]: > 128 µg/mL; MIC [37]: 128 µg/mL (≈ 268 µM)
Nc1nc(-n2cc(C(=O)O)c(=O)c3cc(F)c(N4CC/C(=N\OCc5ccccc5)C(O)C4)nc32)c(F)cc1F (centres undefined)	> 128 µg/mL	> 128 µg/mL	> 128 µg/mL	16 µg/mL (≈ 28.9 µM)	4 µg/mL (≈ 7.21 µM)	128 µg/mL (≈ 231 µM)	> 128 µg/mL	128 µg/mL (≈ 231 µM)	> 128 µg/mL	128 µg/mL (≈ 231 µM)	> 128 µg/mL	32 µg/mL (≈ 57.7 µM)	> 32 µg/mL	> 128 µg/mL	> 128 µg/mL	> 128 µg/mL	64 µg/mL (≈ 115 µM)	128 µg/mL (≈ 231 µM)	4 µg/mL (≈ 7.21 µM)	> 128 µg/mL	MIC [11]: 128 µg/mL (≈ 231 µM); MIC [23]: > 128 µg/mL; MIC [24]: 32 µg/mL (≈ 57.7 µM); MIC [25]: 128 µg/mL (≈ 231 µM); MIC [26]: > 128 µg/mL; MIC [27]: > 128 µg/mL; MIC [28]: > 128 µg/mL; MIC [29]: > 128 µg/mL; MIC [30]: > 128 µg/mL; MIC [31]: 2 µg/mL (≈ 3.61 µM); MIC [32]: 128 µg/mL (≈ 231 µM); MIC [33]: > 128 µg/mL; MIC [34]: 4 µg/mL (≈ 7.21 µM); MIC [35]: > 128 µg/mL; MIC [36]: > 128 µg/mL; MIC [37]: > 128 µg/mL
NC[C@H]1/C(=N/OCc2ccccc2)CN1c1nc2c(cc1F)c(=O)c(C(=O)O)cn2-c1nc(N)c(F)cc1F	> 128 µg/mL	> 128 µg/mL	> 128 µg/mL	4 µg/mL (≈ 7.41 µM)	4 µg/mL (≈ 7.41 µM)	64 µg/mL (≈ 119 µM)	128 µg/mL (≈ 237 µM)	64 µg/mL (≈ 119 µM)	> 128 µg/mL	128 µg/mL (≈ 237 µM)	> 128 µg/mL	32 µg/mL (≈ 59.3 µM)	> 32 µg/mL	> 128 µg/mL	> 128 µg/mL	> 128 µg/mL	> 128 µg/mL	128 µg/mL (≈ 237 µM)	4 µg/mL (≈ 7.41 µM)	> 128 µg/mL	MIC [14]: > 130 µg/mL; MIC [23]: > 128 µg/mL; MIC [24]: 64 µg/mL (≈ 119 µM); MIC [25]: 128 µg/mL (≈ 237 µM); MIC [26]: > 128 µg/mL; MIC [27]: > 128 µg/mL; MIC [28]: > 128 µg/mL; MIC [29]: > 128 µg/mL; MIC [30]: > 128 µg/mL; MIC [31]: 2 µg/mL (≈ 3.71 µM); MIC [32]: 128 µg/mL (≈ 237 µM); MIC [33]: > 128 µg/mL; MIC [34]: 2 µg/mL (≈ 3.71 µM); MIC [35]: > 128 µg/mL; MIC [36]: > 128 µg/mL; MIC [37]: > 128 µg/mL
